Laboratory results: patent US6884805B2, “Polymorph forms of N-(2,3-dimethyl-5,6,7,8-tetrahydrofuro[2,3-B]quinolin-4-YL)-2-(2-oxopyrrolidin-1-YL)acetamide” (Mitsubishi Pharma Corporation, priority 2001, dated 2005)
Converted amounts (≈) assume the structure as drawn. “Also recorded” adds a separate entry of the source. Read-outs that look alike come from different tables or passages of the source.

Legend:
Assay type in all cases: physicochemical
[1] = Water solubility of saturated solutions measured by LC
Description: Saturated solutions of the form A crystals and the form B crystals were prepared at room temperature (25° C.). The concentrations of N-(2,3-dimethyl-5,6,7,8-tetrahydrofuro[2,3-b]quinolin-4-yl)-2-(2-oxopyrrolidin-1-yl)acetamide in each of the saturated solutions then was measured to obtain the water solubility of the form A and form B crystals.
About 20 mg of the form A crystal was weighed and put into separate tube with screwcap, then 10 mL of water were added, and the tube was capped. The tube was ultrasonicated for 5 minutes to suspend the sample. The tube then was shaken for 3 hours in an incubator, with the shaker setting at an appropriate temperature to obtain a saturated solution. The saturated solutions were filtrated using a Chromatodisk 25A (GL Science). 5 mL of the filtrate were measured, and 5 mL of the internal standard solutions (16 mg of isopropyl p-hydroxybenzoate were weighed, and 50% methanol was added to obtain 100 mL of an internal standard solutions) were added, and then 50% methanol was added to obtain 50 mL of sample solutions. 20 mg of each crystals were weighed, and then methanol was added to obtain 50 mL solutions. 5 mL of the aforementioned solutions were measured, and then 5 mL of the internal standard solutions were added, and then 50% of methanol was added to obtain 50 mL of the standard solutions. […]

[2] = Crystal form stability at room temperature and during storage; conditions: for stability in storage: during storage (over time); for stability at room temperature compared with the other crystal form: room temperature (25° C.)
Text: The form A crystal and the form B crystal of the present invention can be prepared with good reproducibility by using solvents safe for human bodies (e.g., pharmaceutically, pharmacologically, and/or physiologically acceptable). Therefore, it is far more useful as a pharmaceutical bulk or an active ingredient of a medicament.

[3] = Conversion of form B crystal to form A crystal in stirred water suspension; conditions: 0.5 g in 10 mL water, stirred 24 hours, confirmed by powder X-ray diffraction
Description: A suspension was prepared by adding 0.5 g of form B crystals of N-(2,3-dimethyl-5 ,6,7,8-tetrahydrofuro [2,3-b]quinolin-4-yl)-2-(2-oxopyrrolidin-1-yl)acetamide to 10 mL of water. […] The powder X-ray diffraction pattern of the resulting crystals was measured to confirm that the resulting crystals were form A crystals.

[4] = Solubility in the crystallization solvent (for the supersaturability calculation); conditions: aqueous with cosolvent or surfactant or cyclodextrin, about room temperature, read-out: solubility under the condition of crystallization
Description: The supersaturability of the form A crystals was calculated as follows: The supersaturability (calculation) is equal to the concentration of the dissolving N-(2,3-dimethyl-5,6,7,8-tetrahydrofuro[2,3-b]quinolin-4-yl)-2-(2-oxopyrrolidin-1-yl)acetamide divided by the solubility of N-(2,3-dimethyl-5,6,7,8-tetrahydrofuro[2,3-b]quinolin-4-yl)-2-(2-oxopyrrolidin-1-yl)acetamide under the condition of crystallization.
The solubility of N-(2,3-dimethyl-5,6,7,8-tetrahydrofuro[2,3-b]quinolin-4-yl)-2-(2-oxopyrrolidin-1-yl)acetamide under the condition of crystallization refers to the solubility of N-(2,3-dimethyl-5,6,7,8-tetrahydrofuro[2,3-b]quinolin-4-yl)-2-(2-oxopyrrolidin-1-yl)acetamide in the solvents used in crystallization at about room temperature.

Compound	solubility (in words) ([1]; summary statement)	solubility compared with the form A crystal ([1]; water, at 25° C. and over a relatively wide temperature range (FIG. 4))	stability in storage [2]	stability at room temperature compared with the other crystal form [2]	crystal form after stirring a suspension in water [3]	stability at room temperature compared with the other crystal form ([2]; listed as form A)	solubility ([4]; 10% methanol)	solubility ([4]; 60% methanol)
Cc1oc2nc3c(c(NC(=O)CN4CCCC4=O)c2c1C)CCCC3 [form B crystal, N-(2,3-dimethyl-5,6,7,8-tetrahydrofuro[2,3-b]quinolin-4-yl)-2-(2-oxopyrrolidin-1-yl)acetamide]	good solubility	higher	worse stability	worse stability	resulted in the form A crystals	–	–	–
Cc1oc2nc3c(c(NC(=O)CN4CCCC4=O)c2c1C)CCCC3 [form A crystal, N-(2,3-dimethyl-5,6,7,8-tetrahydrofuro[2,3-b]quinolin-4-yl)-2-(2-oxopyrrolidin-1-yl)acetamide]	–	–	good stability; also recorded: greater stability	extremely stable; also recorded: better stability	–	more stable	–	–
Cc1oc2nc3c(c(NC(=O)CN4CCCC4=O)c2c1C)CCCC3 [N-(2,3-dimethyl-5,6,7,8-tetrahydrofuro[2,3-b]quinolin-4-yl)-2-(2-oxopyrrolidin-1-yl)acetamide]	–	–	–	–	–	–	0.41 mg/mL (≈ 1.2 mM)	28.1 mg/mL (≈ 82.2 mM)
